# Test results reported in patent publication US20230227445A1, “BENZAMIDE COMPOUND AND USE THEREOF” (HUMANWELL HEALTHCARE (GROUP) CO., LTD., priority 2020, published 2023).
# pIC50: −log10 of the molar value.
# Assays:
# [1] = test system: histamine/citric acid-stimulated cough in guinea pig; assay: Efficacy test for histamine/citric acid-stimulated cough in guinea pig; type: in vivo; settings: guinea pigs, nasal drops, 0.17 mg/kg to 1.5 mg/kg, histamine/citric acid stimulation
# Description: Guinea pigs were adaptively fed for 3 days to 7 days before being grouped. When the body weight of the guinea pigs reached 300 g to 400 g, they were numbered and randomly grouped.
# Compounds or an excipient were administered to guinea pigs by nasal drops 0.25 hour to 24 hours before the start of the cough assessment. The administration dose of the test sample ranged from 0.17 mg/kg to 1.5 mg/kg. For the cough assessment, the guinea pigs were placed in a whole-body volume scan box for adaptation, and then, they were provided with histamine nebulization and then citric acid nebulization. […]
# (§1) The experimental data was statistically analyzed by one-way ANOVA to analyze and compare data of the various groups. The statistical analysis result p<0.05 was regarded as a significant difference. The t-test was employed for difference comparison between any two.
# [2] = test system: rat taste; assay: Taste test in rat (water vs 0.3 mM aqueous quinine solution intake); type: in vivo, SD rats
# Description: SD rats were administered with the corresponding compound after 3 days of overnight water prohibition training. Each rat was supplied with 1 bottle of water and 1 bottle of 0.3 mM aqueous quinine solution half an hour after the administration. After 15 min of water supply, the bottles were removed. The intake amount of water and the intake amount of the 0.3 mM aqueous quinine solution were measured, respectively. The taste influence of the compound on SD rats was evaluated based on the difference between the intake amount of water and the intake amount of the aqueous quinine solution.
# [3] = Pharmacokinetic assay in rat; type: in vivo, SD rats
# Description: For a rat pharmacokinetic assay, male SD rats (180 g to 240 g) were selected and fasted overnight. Three rats were intragastrically administered with 10 mg/kg of the corresponding compound. The blood of the rats was collected before the administration and at 15 min, 30 min, 1 h, 2 h, 4 h, 8 h, and 24 h after the administration. The blood samples were centrifuged at 4° C. for 6 minutes at 8,000 r/min, and plasma was collected and stored at −20° C. Plasma at each time point was taken, and added with 3 to 5 times the amount of an internal standard-containing acetonitrile solution to mix, and the mixture was vortex mixed for 1 minute, and centrifuged at 4° C. for 10 minutes at 13,000 r/min. The supernatant was taken and mixed with 3 times the amount of water, and an appropriate amount of the mixed solution was taken for LC-MS/MS analysis. The primary pharmacokinetic parameters were analyzed by WinNonlin 7.0 software non-atrioventricular model.
# [4] = Pharmacokinetic assay in mouse; type: in vivo, ICR mice
# Description: For a mouse pharmacokinetic assay, male ICR mice (20 g to 25 g) were selected and fasted overnight. Three mice were intragastrically administered with 10 mg/kg of the corresponding compound. The blood of the mice was collected before the administration and at 15 min, 30 min, 1 h, 2 h, 4 h, 8 h, and 24 h after the administration. The blood samples were centrifuged at 4° C. for 6 minutes at 6,800 g, plasma was collected and stored at −80° C.
# The supernatant was mixed with 3 times the amount of water, and an appropriate amount of the mixed solution was taken for LC-MS/MS analysis. The primary pharmacokinetic parameters were analyzed by WinNonlin 7.0 software non-atrioventricular model.
# [5] = test system: ATP/citric acid-stimulated cough in guinea pig; assay: Efficacy test for ATP/citric acid-stimulated cough in guinea pig; type: in vivo; settings: guinea pigs, nasal drops, 0.17 mg/kg to 1.5 mg/kg, ATP/citric acid stimulation
# Description: Guinea pigs were adaptively fed for 3 days to 7 days before being grouped. When the body weight of the guinea pigs reached 300 g to 400 g, they were numbered and randomly grouped. Compounds or an excipient were administered to guinea pigs by nasal drops 0.25 hour to 24 hours before the start of the cough assessment. The administration dose of the test sample ranged from 0.17 mg/kg to 1.5 mg/kg. For the cough assessment, the guinea pigs were placed in a whole-body volume scan box for adaptation, and then provided with ATP nebulization, and a few minutes later, they were provided with citric acid nebulization. The cough times within 15 minutes and the cough latency were recorded from the beginning of citric acid nebulization.
# as §1
# [6] = target: T1, hP2X3 receptor (Homo sapiens, UniProt P56373); assay: Antagonistic activity against hP2X3 receptor by FLIPR calcium flow assay; type: cell-based
# T1 construct: expressed in transfected cells
# T1 sequence (P56373 1-397): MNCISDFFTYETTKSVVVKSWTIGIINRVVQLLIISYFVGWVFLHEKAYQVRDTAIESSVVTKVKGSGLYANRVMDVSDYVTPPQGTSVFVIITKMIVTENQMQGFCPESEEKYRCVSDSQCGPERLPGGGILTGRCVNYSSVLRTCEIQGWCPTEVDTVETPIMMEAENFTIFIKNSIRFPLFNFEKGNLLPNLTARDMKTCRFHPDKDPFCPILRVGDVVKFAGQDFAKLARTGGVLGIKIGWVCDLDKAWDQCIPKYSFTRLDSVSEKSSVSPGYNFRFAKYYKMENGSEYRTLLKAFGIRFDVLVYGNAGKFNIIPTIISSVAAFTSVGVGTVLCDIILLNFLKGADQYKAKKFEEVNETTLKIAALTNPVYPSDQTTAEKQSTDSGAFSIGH
# Description: The antagonistic activity of hP2X3 antagonists against hP2X3 receptor was evaluated by means of FLIPR Calcium 4 Assay Kit (Molecular Devices, R8141) and FLIPR TETRA instrument (Molecular Devices, 0296) by detecting calcium flow signals. 24h before the experiment, human cells, which had been stably transfected with hP2X3 receptors, were plated on a 384-well plate at 2×10^5 cells/mL, with 50 μL of cell suspension per well, and the plate was cultured in an incubator (37° C., 5% CO2) for 16 h to 24 h. The test compound solution (20 to 50 mM DMSO stock solution) with a concentration of 180 times the required concentration was prepared using DMSO. The stock solution was added to the 384-well plate at 500 nL per well, supplemented with 30 μL of FLIPR Assay buffer (1×HBSS+2 mM CaCl2 20 mM HEPES containing 1.26 mM Ca^2+). The 384-well plate was shaken for 20 to 40 min to mix evenly. An agonist (α, β-meATP) with a concentration of 3 times the required concentration (required final concentration was 400 nM) was prepared with FLIPR Assay buffer, and was added to another 384-well plate at 45 μL per well. The culture plate, on which the cells were plated one day ago, was taken, the cell supernatant was sucked and discarded, each well was added with 30 μL of Dye (FLIPR® Calcium 4 Assay Kit, diluted with FLIPR buffer), and then the plate was incubated for 1h. 15 μL of compound was added to each well of cells (using FLIPR sample injector). After 15 minutes, 22.5 μL of the agonist was added to each well, and the fluorescence signal (exciting light wavelength ranging from 470 nm to 495 nm, and emission wavelength ranging from 515 nm to 575 nm) was detect. […] An inhibition effect curve of the compound was fitted on the software GraphpadPrism6, and the IC50 value was calculated.
# [7] = rat, plasma, po, male SD rats, intragastric administration, 10 mg/kg
# [8] = mouse, plasma, po, male ICR mice, intragastric administration, 10 mg/kg
smiles,measurement,setting,value
"Cc1cnc(-c2cc(O[C@@H]3CCOC3)cc(C(=O)N[C@H](C)c3cnc(C(F)(F)F)nc3)c2F)s1 [Compound I-1, 2-fluoro-3-(5-methylthiazol-2-yl)-5-(((R)-tetrahydrofuran-3-yl)oxy)-N—((R)-1-(2-(trifluoromethyl)pyrimidin-5-yl)ethyl)benzamide]",Average cough times within 15 min,[1],10.8
same,Cough inhibition rate vs. solvent,[1],59.4%
same,Water/aqueous quinine solution (ratio of water intake to aqueous quinine solution intake),"[2]; SD rats, 30 mg/kg i.p, 0.3 mM quinine, 15 min supply half an hour after administration",18.2
same,interference on rat taste compared with Reference compound 1 (in words),[2]; vs positive reference compound,significantly less interference on rat taste
same,pharmacokinetic properties in rat compared with reference compound 1 (in words),"[3]; rat model, vs reference compound 1",improved to certain extent
same,AUC(0-t),[3]; [7],5940 ng·h/mL
same,Cmax,[3]; [7],569 ng/mL
same,Tmax,[3]; [7],4 h
same,half-life,"[3]; rat, plasma, po, male SD rats, intragastric administration, 10 mg/kg, read-out: T½ (converted)",3.61 h
same,pharmacokinetic properties in mouse compared with Reference compound 1 and Reference compound 2 (in words),"[4]; mouse assay, vs Reference compounds 1 and 2",significantly improved pharmacokinetic properties
same,AUC(0-t),[4]; [8],12100 ng·h/mL
same,Cmax,[4]; [8],1550 ng/mL
same,Tmax,[4]; [8],2 h
same,half-life,"[4]; mouse, plasma, po, male ICR mice, intragastric administration, 10 mg/kg, read-out: T½ (converted)",2.3 h
same,Average cough times within 15 min,[5],6.5
same,Cough inhibition rate vs. solvent,[5],67.2%
same,pIC50,"[6]; human cells stably transfected with hP2X3, agonist α,β-meATP 400 nM",7.08
same,antagonistic activity against hP2X3 receptor compared with Reference compound 1 (in words),[6]; vs Reference compound 1,better antagonistic activity
